Entries after “also recorded” stand apart in the source; their conditions may differ. Where no end group is shown, it is not given here.
Tests used:
GIPR = biological target: T1, GIPR (Rattus norvegicus, UniProt P43219); experiment: pGloSensor-22F cAMP biosensor assay for GIPR agonism and antagonism in rat INS-1 cells; assay type: cell-based; design: dose or concentration left out as unconfirmed; settings: mixed with GIP(Ag)
T1 construct: endogenous in cells; host or cells: rat INS-1 insulinoma cells (with cAMP-luciferase reporter / pGloSensor-22F biosensor)
T1 sequence (P43219 19-455): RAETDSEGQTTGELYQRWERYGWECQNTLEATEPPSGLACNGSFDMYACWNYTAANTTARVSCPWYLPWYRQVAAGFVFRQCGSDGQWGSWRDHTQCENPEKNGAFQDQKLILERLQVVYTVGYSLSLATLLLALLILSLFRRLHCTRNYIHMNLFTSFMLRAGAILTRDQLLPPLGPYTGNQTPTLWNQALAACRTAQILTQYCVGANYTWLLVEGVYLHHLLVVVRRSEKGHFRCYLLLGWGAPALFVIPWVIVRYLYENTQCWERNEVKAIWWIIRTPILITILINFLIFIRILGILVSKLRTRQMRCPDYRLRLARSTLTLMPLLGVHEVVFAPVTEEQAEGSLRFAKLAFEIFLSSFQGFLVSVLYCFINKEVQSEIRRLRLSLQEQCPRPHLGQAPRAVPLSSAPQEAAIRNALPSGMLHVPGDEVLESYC
Procedure: A series of GIP antagonist peptides were evaluated at blocking human GIP (hGIP) agonism and the induction of cAMP. Briefly, rat INS-1 cells having pGloSensor-22F (Promega) were constructed and used to evaluate GIPR agonism and antagonism. […] The conformational change leads to the activation of the luciferase enzyme, thereby allowing detection of activation of GIPR, which produces cAMP upon activation.
To assay for GIPR agonism, rat INS-1 cells having pGloSensor-22F biosensor were treated with increasing concentrations of GIP(Ag). Immediately after the addition, the luminescence of the cells was measured, normalized using the basal luminescence and plotted.
GIPR antagonism was measured as the inhibition of GIP(Ag)-induced activation of the cAMP-luciferase reporter gene in rat INS-1 cells having pGloSensor-22F biosensor. The following GIP derivatives accessed in this assay for GIPR antagonism: GIP(Ant 3-30), GIP(Ant 3-30NH2), (GIP(Ant 3-30) having amidated carboxy terminus), GIP(AntPro3), GIP(AntPro3NH2), GIP(Ant3-30, Pro3) and GIP(Ant3-30, Pro3NH2). Briefly, rat INS-1 cells having pGloSensor-22F were treated with increasing doses of the above various GIP derivatives, mixed with […] GIP(Ag). Immediately after the addition, the luminescence of the cells was measured, normalized using the basal luminescence and plotted.
The GIP(Ag) was re-evaluated across a broader concentration range. Rat INS-1 cells having pGloSensor-22F biosensor were treated with increasing concentrations of GIP(Ag). Immediately after the addition, the luminescence of the cells was measured, normalized using the basal luminescence and plotted.
The GIP(AntPro3) and GIP(AntPro3NH2) were re-evaluated across a broader concentration range. Briefly, rat INS-1 cells having pGloSensor-22F were treated with increasing doses of GIP(AntPro3) and GIP(AntPro3NH2), mixed with […] GIP(Ag). Immediately after the addition, the luminescence of the cells was measured, normalized using the basal luminescence and plotted.

[1] = system: HFD-fed mice (Male C57BL/6); experiment: glucose tolerance test (GTT) model in HFD-fed mice; assay type: in vivo; settings: for serum insulin time course following glucose administration: FIG. 7C; for serum glucose time course following glucose administration: i.v. treatment, 18 hours fast, 2 g/kg glucose, versus PBS control (200 to about 800 mg/dl), FIG. 7A
Procedure: Cages were changed once, then changed once a week.
The mice administered the above treatment by i.v. injections. The mice were then fasted for 18 hours and administered a dose of 2 g/kg glucose by i.v. injections. Blood samples were drawn by tail clip bleeding at 15, 30 and 60 minutes post dosing and cardiac bleeding was used at 2 hours after glucose injection as end-point.

[2] = system: HFD-fed mice (Male C57BL/6); experiment: longer-term obesity model in HFD-fed mice; settings: for blood glucose levels: Days 0, 1, 10 and 15, compared to the untreated mice, FIG. 8E; for liver histology: hepatocellular ballooning and steatosis: H&E; for plasma insulin levels on Day 1: between 15 and 120 minutes after treatment, one way ANOVA p<0.05, FIG. 8C left panel; for average daily food intake: compared to the untreated mice, FIG. 8D; for liver weight: livers of PBS control mice versus treated mice / subcutaneous white adipose tissue (sWAT) weight: day 19 necropsy; for liver weight: livers of PBS control mice versus treated mice: FIG. 8G; for subcutaneous white adipose tissue (sWAT) weight: versus PBS control, FIG. 8H; for tolerability: obesity model; for plasma insulin levels on Day 15: one way ANOVA p<0.0001, FIG. 8C right panel; for change in body weight: tail vein dosing Day 0, 4, 7, 10, 14, 18, FIG. 8A
Excerpt: Briefly, mice (Male C57BL/6) were of approximately 13 weeks of age were housed 4 mice per cage. Following 2 weeks of acclimation, mice were introduced to 60% kcal HFD (Research Diets D12492). Cages were changed once, then changed once a week. Weekly body weights and non-fasted blood glucose were collected. […] The longer-term obesity model assesses a number of end points associated with obesity related type 2 diabetes (FIG. 6A).
Mice (Male C57BL/6) were of approximately 13 weeks of age were housed 4 mice per cage. Following 2 weeks of acclimatation, mice were introduced to 60% kcal HFD (Research Diets D12492). Cages were changed once, then changed once a week. Weekly body weights and non-fasted blood glucose were collected.
Mice were injected by tail vein with vehicle or the drugs on Day 0, Day 4, Day 7, Day 10, Day 14, and Day 18. Body weights were measured every 2 days. Change in body weight was calculated and plotted.
Cumulative food intake was measured between day 0 and 3, between day 4 and 7, between day 7 and day 11, and between day 11 and day 14, and represented as average daily food intake. For food consumption, remaining food was weighed on days 3, 8, and 15, and subtracted from the starting weight. This value was then normalized to the number of mice in the cage, and the number of days the mice had access to the food prior to weighing.
Blood glucose levels were measured on Days 0, 1, 10 and 15 and plotted.
On day 19 during terminal necropsy, liver and subcutaneous white adipose tissue were recovered weighed from treated animals.
To further analyze the changes in liver, histopathological analysis was conducted. Briefly, the liver tissue was stained with hematoxylin and eosin (H&E) and evaluated using standard techniques.

[3] = biological target: T2, glucose-dependent insulinotropic polypeptide receptor (GIPR) (Homo sapiens, UniProt P48546); experiment: GeneBLAzer GIPR-CRE-bla HEK293T cell-based reporter assay; settings: increasing amounts, FIG. 3B
T2 construct: host or cells: HEK293T (GeneBLAzer GIPR-CRE-bla)
T2 sequence (P48546 22-466): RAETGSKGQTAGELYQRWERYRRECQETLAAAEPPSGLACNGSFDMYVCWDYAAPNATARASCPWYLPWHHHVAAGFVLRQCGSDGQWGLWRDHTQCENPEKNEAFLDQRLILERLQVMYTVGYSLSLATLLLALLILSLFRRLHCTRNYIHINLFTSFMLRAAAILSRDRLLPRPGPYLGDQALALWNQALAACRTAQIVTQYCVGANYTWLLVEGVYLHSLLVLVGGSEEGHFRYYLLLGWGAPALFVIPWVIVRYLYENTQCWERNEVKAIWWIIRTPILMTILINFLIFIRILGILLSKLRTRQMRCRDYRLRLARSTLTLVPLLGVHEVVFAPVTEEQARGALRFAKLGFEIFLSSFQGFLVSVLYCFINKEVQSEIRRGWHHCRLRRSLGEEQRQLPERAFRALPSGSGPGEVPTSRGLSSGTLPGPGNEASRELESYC
Procedure: This assay is diagrammatically represented in FIG. 3A. […] In the presence of the β-lactamase LiveBLAzer™ substrate, cells expressing β-lactamase fluoresce blue (460 nm), while those not expressing β-lactamase fluoresce green (530 nm); higher 460/530 ratio indicates the activation of GIPR.
Briefly, GeneBLAzer® GIPR-CRE-bla HEK293T cells were added to wells of black-wall assay plates. […] To each well, LiverBLAzer-FRET B/G substrate mixture was added. The plate was covered with plate sealer and incubated at room temperature for 2 hours in the dark. Fluorescence emission was measured on SpectraMax plate reader at 460 nm and 530 nm with excitation set to 409 nm. After subtraction of background, average value at 460 nm (blue color) was divided by average value at 530 nm (green color) to obtain the 460/530 ratio.

GIP receptor (GIPR) = biological target: T3, GIP receptor (GIPR) (Rattus norvegicus, UniProt P43219); experiment: cAMP-Glo assay in rat insulinoma INS-1 cells harboring a cAMP-luciferase reporter gene; assay type: cell-based; settings: 1 hour glucose, then 2 hour incubation, FIG. 4A
T3 construct: endogenous in cells; host or cells: rat INS-1 insulinoma cells (with cAMP-luciferase reporter / pGloSensor-22F biosensor)
T3 sequence (P43219 19-455): T1 sequence (P43219 19-455)
Excerpt: Rat insulinoma INS-1 cells harboring a cAMP-luciferase reporter gene were used to study the activation of GIPR. Without wishing to be bound by theory, the activation of GIPR leads to temporary depletion of ATP because of consumption of ATP in cyclization reaction to produce cAMP as well as by phosphorylation by protein kinase A of its substrate. Without wishing to be bound by theory, the temporary depletion of ATP leads to an inhibition of luciferase activity, which needs ATP as a substrate.

[4] = broader concentration range, FIG. 5B

Row | Substance | inhibition of GIP(Ag)-induced activation of the cAMP-luciferase reporter gene (GIPR antagonism) (GIPR; [4]) | inhibition of GIP(Ag)-induced activation of the cAMP-luciferase reporter gene (GIPR antagonism) (GIPR; FIG. 5A) | serum insulin time course following glucose administration [1] | serum glucose time course following glucose administration [1] | glucose tolerance ([1]; summary of GTT model) | blood glucose levels [2] | weights of individual mice ([2]; FIG. 8B) | liver histology: hepatocellular ballooning and steatosis ([2]; FIG. 8J) | plasma insulin levels on Day 1 [2] | average daily food intake [2] | liver weight: livers of PBS control mice versus treated mice [2] | subcutaneous white adipose tissue (sWAT) weight [2] | tolerability [2] | plasma insulin levels on Day 15 [2] | decrease in liver collagen staining relative to tirzepatide or dulaglutide ([2]; picrosirius red, FIG. 8I) | liver collagen staining (fibrosis) ([2]; picrosirius red, FIG. 8I) | change in body weight [2] | 460/530 ratio, indicative of the activation of GIPR [3] | inhibition of luciferase (GIPR activation, cAMP accumulation) (GIP receptor (GIPR)) | liver histology: hepatocellular ballooning and steatosis ([2]; higher magnifications, compared to untreated animals, FIG. 8K)
1 | GIP(AntPro3): GIP antagonist peptide, SEQ ID NO: 97 (YAPGTFISDYSIAMDKIHQQDFVNWLLAQKGKKNDWKHNITQ) | dose-dependent inhibition of GIP(Ag)-induced activation | more potent inhibition of GIP agonist signaling than the others tested; also recorded: maximal level of a dose-dependent inhibition of GIP(Ag)-induced activation |  |  |  |  |  |  |  |  |  |  |  |  |  |  |  |  |  | 
2 | GIP(AntPro3NH2): GIP antagonist peptide GIP(AntPro3), presumably having amidated carboxy terminus (YAPGTFISDYSIAMDKIHQQDFVNWLLAQKGKKNDWKHNITQ-NH2) | dose-dependent inhibition of GIP(Ag)-induced activation | more potent inhibition of GIP agonist signaling than the others tested; also recorded: maximal level of a dose-dependent inhibition of GIP(Ag)-induced activation |  |  |  |  |  |  |  |  |  |  |  |  |  |  |  |  |  | 
3 | GLP-1-Fc-GIP(AntPro3): GLP-1 fused to GIP antagonist peptide (amino acids 1-42 having E3P mutation) via IgG1 hinge-CH2-CH3 Fc domain; SEQ ID NO: 95 |  |  | rapid induction of insulin | much smaller increase in serum glucose | improved glucose tolerance | decrease in blood glucose | induced weight loss | a decrease in hepatocellular ballooning and steatosis | rapid decrease in insulin levels | decrease in food intake | much heavier compared to the mice receiving treatments | decreased | well tolerated and no overt toxicities were noted | significant decrease in the levels of insulin | greater decrease in collagen staining | a decrease in collagen staining | progressive weight loss |  |  | 
4 | dulaglutide [reference compound] |  |  |  |  |  | decrease in blood glucose |  | a decrease in hepatocellular ballooning and steatosis | rapid decrease in insulin levels | decrease in food intake | much heavier compared to the mice receiving treatments | decreased | well tolerated and no overt toxicities were noted | significant decrease in the levels of insulin |  | a decrease in collagen staining | progressive weight loss |  |  | 
5 | tirzepatide [reference compound] |  |  | rapid induction of insulin | much smaller increase in serum glucose |  | decrease in blood glucose |  | a decrease in hepatocellular ballooning and steatosis |  | decrease in food intake | much heavier compared to the mice receiving treatments | decreased |  | significant decrease in the levels of insulin |  | a decrease in collagen staining | progressive weight loss | dose-dependent and saturable increase in 460/530 ratio | dose-dependent and saturable inhibition of luciferase with similar potency | significant decrease in hepatocellular ballooning and steatosis

From patent publication US12492236B2, “Fusion proteins for the treatment of cardiometabolic diseases” (Shattuck Labs, Inc., priority 2022, dated 2025)
